# Test results from patent publication US7750003B2, “Compounds-943” (AstraZeneca AB, priority 2006, dated 2010).
# pIC50: −log10 of the molar value.
# Biological target: recombinant mTOR (FLAG-tagged, residues 1362-2549) (Homo sapiens, UniProt P42345)
# Experiment: In vitro mTOR kinase assay (Test (a), AlphaScreen)
# Assay type: biochemical
# Conditions: ATP 20 μM, read-out: Test (a): IC50 versus mTOR kinase
# Outline: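 AlphaScreen read-out: a phospho-T389 p70 S6K antibody on acceptor beads captures the phosphorylated biotin-peptide on donor beads, with signal loss indicating inhibition.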
# recombinant mTOR (FLAG-tagged, residues 1362-2549), sequence (P42345 1362-2549): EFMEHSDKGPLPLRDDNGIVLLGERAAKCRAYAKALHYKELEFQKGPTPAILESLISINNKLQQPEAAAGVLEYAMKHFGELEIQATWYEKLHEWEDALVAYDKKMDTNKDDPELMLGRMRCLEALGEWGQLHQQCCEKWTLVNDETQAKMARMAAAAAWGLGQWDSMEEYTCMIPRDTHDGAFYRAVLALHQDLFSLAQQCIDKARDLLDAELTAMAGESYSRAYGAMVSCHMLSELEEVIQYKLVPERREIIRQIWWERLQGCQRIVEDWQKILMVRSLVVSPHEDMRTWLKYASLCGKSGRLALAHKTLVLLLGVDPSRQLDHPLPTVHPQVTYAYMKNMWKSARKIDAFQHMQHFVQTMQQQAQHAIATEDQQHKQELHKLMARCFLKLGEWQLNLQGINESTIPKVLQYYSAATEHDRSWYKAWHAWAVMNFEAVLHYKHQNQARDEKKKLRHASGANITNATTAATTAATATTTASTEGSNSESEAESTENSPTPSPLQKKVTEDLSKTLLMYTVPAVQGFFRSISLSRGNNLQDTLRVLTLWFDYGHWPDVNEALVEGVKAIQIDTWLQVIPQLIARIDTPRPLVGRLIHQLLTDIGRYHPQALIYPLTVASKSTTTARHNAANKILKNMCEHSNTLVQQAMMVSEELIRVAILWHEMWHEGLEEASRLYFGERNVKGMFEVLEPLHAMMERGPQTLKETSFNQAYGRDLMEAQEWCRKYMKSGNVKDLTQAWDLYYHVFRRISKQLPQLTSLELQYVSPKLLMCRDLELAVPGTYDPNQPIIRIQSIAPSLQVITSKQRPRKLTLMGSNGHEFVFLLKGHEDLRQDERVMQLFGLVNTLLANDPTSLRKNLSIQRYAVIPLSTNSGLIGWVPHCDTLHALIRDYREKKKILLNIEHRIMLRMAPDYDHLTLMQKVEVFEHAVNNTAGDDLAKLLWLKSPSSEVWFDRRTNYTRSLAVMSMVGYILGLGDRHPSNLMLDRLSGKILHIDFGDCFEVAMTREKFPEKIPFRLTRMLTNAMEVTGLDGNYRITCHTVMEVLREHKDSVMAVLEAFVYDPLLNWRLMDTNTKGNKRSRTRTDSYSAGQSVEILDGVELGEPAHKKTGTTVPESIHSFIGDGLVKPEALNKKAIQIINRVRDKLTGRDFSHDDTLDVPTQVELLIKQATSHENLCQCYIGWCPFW
row,SMILES,pIC50
1,"C[C@H]1COCCN1c1cc(CS(C)(=O)=O)nc(-c2ccc(NC(=O)NCCc3ccccn3)cc2)n1 [Example 24, 1-[4-[4-[(3S)-3-Methylmorpholin-4-yl]-6-(methylsulfonylmethyl)pyrimidin-2-yl]phenyl]-3-(2-pyridin-2-ylethyl)urea]",6.47
2,"C[C@H]1COCCN1c1cc(CS(C)(=O)=O)nc(-c2ccc(NC(=O)NCc3cccnc3)cc2)n1 [Example 24a, 1-[4-[4-[(3S)-3-methylmorpholin-4-yl]-6-(methylsulfonylmethyl)pyrimidin-2-yl]phenyl]-3-(pyridin-3-ylmethyl)urea]",7.09
3,"CNC(=O)Nc1c(F)cc(-c2nc(N3CCOC[C@@H]3C)cc(C(C)(C)S(C)(=O)=O)n2)cc1F [Example 24ab, 1-[2,6-difluoro-4-[4-[(3S)-3-methylmorpholin-4-yl]-6-(2-methylsulfonylpropan-2-yl)pyrimidin-2-yl]phenyl]-3-methyl-urea]",7.38
4,"CCNC(=O)Nc1c(F)cc(-c2nc(N3CCOC[C@@H]3C)cc(C(C)(C)S(C)(=O)=O)n2)cc1F [Example 24ac, 3-[2,6-difluoro-4-[4-[(3S)-3-methylmorpholin-4-yl]-6-(2-methylsulfonylpropan-2-yl)pyrimidin-2-yl]phenyl]-1-ethyl-urea]",7.32
5,"C[C@H]1COCCN1c1cc(C(C)(C)S(C)(=O)=O)nc(-c2cc(F)c(NC(=O)NC3CC3)c(F)c2)n1 [Example 24ad, 3-cyclopropyl-1-[2,6-difluoro-4-[4-[(3S)-3-methylmorpholin-4-yl]-6-(2-methylsulfonylpropan-2-yl)pyrimidin-2-yl]phenyl]urea]",6.29
6,"C[C@H]1COCCN1c1cc(C(C)(C)S(C)(=O)=O)nc(-c2cc(F)c(NC(=O)NCc3cnn(C)c3)c(F)c2)n1 [Example 24ae, 1-[2,6-difluoro-4-[4-[(3S)-3-methylmorpholin-4-yl]-6-(2-methylsulfonylpropan-2-yl)pyrimidin-2-yl]phenyl]-3-[(1-methylpyrazol-4-yl)methyl]urea]",6.62
7,"C[C@H]1COCCN1c1cc(CS(C)(=O)=O)nc(-c2ccc(NC(=O)NCCc3c[nH]cn3)cc2)n1 [Example 24b, 3-[2-(1H-imidazol-4-yl)ethyl]-1-[4-[4-[(3S)-3-methylmorpholin-4-yl]-6-(methylsulfonylmethyl)pyrimidin-2-yl]phenyl]urea]",7.42
8,"CNC(=O)Nc1ncc(-c2nc(N3CCOC[C@@H]3C)cc(C(C)(C)S(C)(=O)=O)n2)cn1 [Example 24bh, 3-methyl-1-[5-[4-[(3S)-3-methylmorpholin-4-yl]-6-(2-methylsulfonylpropan-2-yl)pyrimidin-2-yl]pyrimidin-2-yl]urea]",7.92
9,"C[C@H]1COCCN1c1cc(C(C)(C)S(C)(=O)=O)nc(-c2ccc(NC(=O)NCc3cnn(C)c3)nc2)n1 [Example 24bi, 1-[5-[4-[(3S)-3-methylmorpholin-4-yl]-6-(2-methylsulfonylpropan-2-yl)pyrimidin-2-yl]pyridin-2-yl]-3-[(1-methylpyrazol-4-yl)methyl]urea]",6.37
10,"C[C@H]1COCCN1c1cc(C(C)(C)S(C)(=O)=O)nc(-c2ccc(NC(=O)NCCO)cc2)n1 [Example 24bj, 3-(2-hydroxyethyl)-1-[4-[4-[(3S)-3-methylmorpholin-4-yl]-6-(2-methylsulfonylpropan-2-yl)pyrimidin-2-yl]phenyl]urea]",7.29
11,"Cc1cnc(CNC(=O)Nc2ccc(-c3nc(CS(C)(=O)=O)cc(N4CCOC[C@@H]4C)n3)cc2)cn1 [Example 24c, 3-[4-[4-[(3S)-3-methylmorpholin-4-yl]-6-(methylsulfonylmethyl)pyrimidin-2-yl]phenyl]-1-[(5-methylpyrazin-2-yl)methyl]urea]",6.25
12,"C[C@H]1COCCN1c1cc(CS(C)(=O)=O)nc(-c2ccc(NC(=O)NCc3ccccn3)cc2)n1 [Example 24d, 1-[4-[4-[(3S)-3-methylmorpholin-4-yl]-6-(methylsulfonylmethyl)pyrimidin-2-yl]phenyl]-3-(pyridin-2-ylmethyl)urea]",5.36
13,"C[C@H]1COCCN1c1cc(CS(C)(=O)=O)nc(-c2ccc(NC(=O)NCc3ccncc3)cc2)n1 [Example 24e, 1-[4-[4-[(3S)-3-methylmorpholin-4-yl]-6-(methylsulfonylmethyl)pyrimidin-2-yl]phenyl]-3-(pyridin-4-ylmethyl)urea]",6.09
14,"C[C@H]1COCCN1c1cc(CS(C)(=O)=O)nc(-c2ccc(NC(=O)NCc3cnn(C)c3)cc2)n1 [Example 24g, 1-[4-[4-[(3S)-3-methylmorpholin-4-yl]-6-(methylsulfonylmethyl)pyrimidin-2-yl]phenyl]-3-[(1-methylpyrazol-4-yl)methyl]urea]",6.51
15,"Cc1cc(CNC(=O)Nc2ccc(-c3nc(CS(C)(=O)=O)cc(N4CCOC[C@@H]4C)n3)cc2)no1 [Example 24h, 3-[4-[4-[(3S)-3-methylmorpholin-4-yl]-6-(methylsulfonylmethyl)pyrimidin-2-yl]phenyl]-1-[(5-methyl-1,2-oxazol-3-yl)methyl]urea]",5.36
16,"C[C@H]1COCCN1c1cc(CS(C)(=O)=O)nc(-c2ccc(NC(=O)NCc3cccc(N(C)C)c3)cc2)n1 [Example 24i, 3-[(3-dimethylaminophenyl)methyl]-1-[4-[4-[(3S)-3-methylmorpholin-4-yl]-6-(methylsulfonylmethyl)pyrimidin-2-yl]phenyl]urea]",6.48

row,SMILES,pIC50
1,"C[C@H]1COCCN1c1cc(CS(C)(=O)=O)nc(-c2ccc(NC(=O)NCc3cncs3)cc2)n1 [Example 24j, 1-[4-[4-[(3S)-3-methylmorpholin-4-yl]-6-(methylsulfonylmethyl)pyrimidin-2-yl]phenyl]-3-(1,3-thiazol-5-ylmethyl)urea]",6.66
2,"CNC(=O)Nc1ccn(-c2nc(CS(C)(=O)=O)cc(N3CCOC[C@@H]3C)n2)n1 [Example 24k, 3-methyl-1-[1-[4-[(3S)-3-methylmorpholin-4-yl]-6-(methylsulfonylmethyl)pyrimidin-2-yl]pyrazol-3-yl]urea]",6.74
3,"CCNC(=O)Nc1ccn(-c2nc(CS(C)(=O)=O)cc(N3CCOC[C@@H]3C)n2)n1 [Example 24l, 1-ethyl-3-[1-[4-[(3S)-3-methylmorpholin-4-yl]-6-(methylsulfonylmethyl)pyrimidin-2-yl]pyrazol-3-yl]urea]",6.08
4,"C[C@H]1COCCN1c1cc(CS(C)(=O)=O)nc(-n2ccc(NC(=O)NC3CC3)n2)n1 [Example 24m, 3-cyclopropyl-1-[1-[4-[(3S)-3-methylmorpholin-4-yl]-6-(methylsulfonylmethyl)pyrimidin-2-yl]pyrazol-3-yl]urea]",6.19
5,"CNC(=O)NC1CCN(c2nc(N3CCOC[C@@H]3C)cc(C(C)(C)S(C)(=O)=O)n2)CC1 [Example 24n, 3-methyl-1-[1-[4-[(3S)-3-methylmorpholin-4-yl]-6-(2-methylsulfonylpropan-2-yl)pyrimidin-2-yl]-4-piperidyl]urea]",5.49
6,"CCNC(=O)NC1CCN(c2nc(N3CCOC[C@@H]3C)cc(C(C)(C)S(C)(=O)=O)n2)CC1 [Example 24o, 1-ethyl-3-[1-[4-[(3S)-3-methylmorpholin-4-yl]-6-(2-methylsulfonylpropan-2-yl)pyrimidin-2-yl]-4-piperidyl]urea]",5.47
7,"C[C@H]1COCCN1c1cc(C(C)(C)S(C)(=O)=O)nc(N2CCC(NC(=O)NC3CC3)CC2)n1 [Example 24p, 3-cyclopropyl-1-[1-[4-[(3S)-3-methylmorpholin-4-yl]-6-(2-methylsulfonylpropan-2-yl)pyrimidin-2-yl]-4-piperidyl]urea]",6.05
8,"C[C@H]1COCCN1c1cc(C(C)(C)S(C)(=O)=O)nc(N2CCC(NC(=O)NCc3cnn(C)c3)CC2)n1 [Example 24q, 1-[1-[4-[(3S)-3-methylmorpholin-4-yl]-6-(2-methylsulfonylpropan-2-yl)pyrimidin-2-yl]-4-piperidyl]-3-[(1-methylpyrazol-4-yl)methyl]urea]",5.24
9,"C[C@H]1COCCN1c1cc(CS(C)(=O)=O)nc(-c2ccc(NC(=O)NC3CC3)nc2)n1 [Example 24r, 3-cyclopropyl-1-[5-[4-[(3S)-3-methylmorpholin-4-yl]-6-(methylsulfonylmethyl)pyrimidin-2-yl]pyridin-2-yl]urea]",6.47
10,"C[C@H]1COCCN1c1cc(C(C)(C)S(C)(=O)=O)nc(-c2ccc(NC(=O)Nc3ccon3)cc2)n1 [Example 24s, 1-[4-[4-[(3S)-3-methylmorpholin-4-yl]-6-(2-methylsulfonylpropan-2-yl)pyrimidin-2-yl]phenyl]-3-(1,2-oxazol-3-yl)urea]",8.33
11,"Cc1cc(NC(=O)Nc2ccc(-c3nc(N4CCOC[C@@H]4C)cc(C(C)(C)S(C)(=O)=O)n3)cc2)no1 [Example 24t, 3-[4-[4-[(3S)-3-methylmorpholin-4-yl]-6-(2-methylsulfonylpropan-2-yl)pyrimidin-2-yl]phenyl]-1-(5-methyl-1,2-oxazol-3-yl)urea]",7.92
12,"C[C@H]1COCCN1c1cc(C(C)(C)S(C)(=O)=O)nc(-c2ccc(NC(=O)Nc3ncccn3)cc2)n1 [Example 24u, 1-[4-[4-[(3S)-3-methylmorpholin-4-yl]-6-(2-methylsulfonylpropan-2-yl)pyrimidin-2-yl]phenyl]-3-pyrimidin-2-yl-urea]",6.92
13,"C[C@H]1COCCN1c1cc(C(C)(C)S(C)(=O)=O)nc(-c2ccc(NC(=O)Nc3cc[nH]n3)cc2)n1 [Example 24v, 1-[4-[4-[(3S)-3-methylmorpholin-4-yl]-6-(2-methylsulfonylpropan-2-yl)pyrimidin-2-yl]phenyl]-3-(1H-pyrazol-3-yl)urea]",7.26
14,"C[C@H]1COCCN1c1cc(C(C)(C)S(C)(=O)=O)nc(-c2ccc(NC(=O)Nc3ccccc3)cc2)n1 [Example 24w, 1-[4-[4-[(3S)-3-methylmorpholin-4-yl]-6-(2-methylsulfonylpropan-2-yl)pyrimidin-2-yl]phenyl]-3-phenyl-urea]",7.47
15,"COc1ccc(NC(=O)Nc2ccc(-c3nc(N4CCOC[C@@H]4C)cc(C(C)(C)S(C)(=O)=O)n3)cc2)cn1 [Example 24x, 3-(6-methoxypyridin-3-yl)-1-[4-[4-[(3S)-3-methylmorpholin-4-yl]-6-(2-methylsulfonylpropan-2-yl)pyrimidin-2-yl]phenyl]urea]",7.00
